From US20250205177A1, “HONEYBEE ANTIDOTE COMPOSITION” (priority 2023, published 2025)

What was measured:
[1] = system: foragers (field bees) poisoned by carbaryl; experiment: Curcumin feeding of forager (field) bees topically poisoned by carbaryl; format: in vivo, honeybees; settings: indoor feeding
Procedure: (§1) […] These experiments were performed separately on newly emerged honeybees and foragers. While 0.063 ug of an insecticide was administered to the chest of each newly emerged honeybee, 0.11 ug of the insecticide was applied to each forager bee. The intoxicated honeybees were exposed to carbaryl and then fed supplementary food. While the control group consumed only sugar syrup, the experimental group consumed supplementary food containing curcumin. All honeybee groups were fed for 48 hours under controlled laboratory conditions.

[2] = system: newly emerged honeybees (nurse bees) poisoned by carbaryl; experiment: Curcumin feeding of newly emerged (nurse) honeybees topically poisoned by carbaryl; format: in vivo; settings: for mortality rate: nurse bees, indoor feeding
Procedure: as §1

[3] = system: honeybee colonies used for melon pollination; experiment: Field experiment in melon greenhouses: colony strength factors; format: in vivo, honeybees
Procedure: The impact observed when adding 100 ppm of curcumin to greenhouses for growing melons was assessed. Thirty greenhouses owned by three farmers were used in this study. While one group of honeybees was given a solution supplemented with 100 ppm of curcumin (CU100), the control hives were given only 50% sugar syrup. Colony strength factors were measured every 10 days.

[4] = system: detoxification enzymes (oxidases) of honeybees; experiment: Gene expression / activity of detoxification enzymes 24 hours after carbaryl exposure; format: in vivo; settings: 200 ppm curcumin
Procedure: FIGS. 8 and 9 show graphs for explaining gene expression analysis of detoxification enzymes in SU (50% sugar syrup), CU (50% sugar syrup +200 ppm of curcumin), and the control group (ACET, exposed to only 2 ul of acetone and given sugar), 24 hours after being exposed to carbaryl.

[5] = system: honeybees (Apis mellifera) chronically exposed to carbaryl; experiment: Long-term indoor feeding with chronic oral exposure to carbaryl; format: in vivo; settings: 100 ppm curcumin; for mortality rate of honeybees: 10 days
Text: FIG. 4 is a graph of a Kaplan-Meier survival curve for test honeybees (Apis mellifera) chronically exposed to 2.5 and 5 ppm of carbaryl through oral exposure.
FIGS. 5A and 5B show graphs of the mortality rate of honeybees for 10 days after being chronically exposed to 2.5 ppm (5A) and 5 ppm (5B) of carbaryl.

[6] = 100 ppm curcumin, melon greenhouses at Seongju, long-term

SMILES: COc1cc(/C=C/C(=O)CC(=O)/C=C/c2ccc(O)c(OC)c2)ccc1O [curcumin]
- mortality rate ([1]; 50 ppm curcumin, reduced from 35): 24
- mortality rate ([1]; 90 ppm curcumin, from 35): 24
- mortality rate ([1]; 100 ppm curcumin, reduced from 35): 18
- mortality rate ([1]; 110 ppm curcumin, from 35): 24
- mortality rate of nurse bees compared with control (in words) ([2]; curcumin at varying concentrations after carbaryl exposure): noticeable reduction
- mortality rate ([2]; 50 ppm curcumin, reduced from 80): 50
- mortality rate ([2]; 90 ppm curcumin, from 80): 33
- mortality rate ([2]; 100 ppm curcumin, reduced from 80): 24
- mortality rate ([2]; 110 ppm curcumin, from 80): 34
- rate of hive weight reduction ([3]; 100 ppm curcumin compared with only sucrose solution): lower
- number of both adult and larval honeybees [3, 6]: tended to increase
- weight of honey storage (honey) [3, 6]: no change
- activities of honeybees in outdoor experiments ([3]; group treated with 100 ppm curcumin): excellent
- activity of the detoxification enzymes [4]: even higher level
- survival rate of honeybees in exposure experiments to carbaryl ([5]; Kaplan-Meier, 2.5 and 5 ppm carbaryl oral): highest
- mortality rate of honeybees ([5]; chronic exposure to 2.5 ppm carbaryl, control 38%): 21%
- mortality rate of honeybees ([5]; chronic exposure to 5 ppm carbaryl, control 78%): 55%
